Experimental data reported in ChEMBL document CHEMBL1201862, “PubChem BioAssay data set” (2004).
Calls of active or inactive are those of the source.

What was measured:
[1] = HEp-2 cell cytotoxicity, dose response, cytotoxicity control for RSV inhibitor project, HTS (AID 2410); type: functional; details: human respiratory syncytial virus
[2] = tested on: Vero; test: cells; type: functional, cell-based; details: Chlorocebus sabaeus
[3] = cells
[4] = cytotoxicity in HEK-293T cells, dose response, cytotoxicity control for TCR NF-kB inhibitor project, luminescence, T-cell screen hits (AID 489026); type: functional, cell-based;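 also: cells exposed to compound about 14 hours before the viability readout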
[5] = biological target: Heat shock protein HSP 90-alpha (Homo sapiens, UniProt P07900); type: functional, organism-based
[6] = tested on: Vero; test: cells; type: functional; details: Chlorocebus sabaeus
[7] = THP-1 cell cytotoxicity, dose response, cytotoxicity control for non-replicating M. tuberculosis project (AID 489025); type: functional
[8] = Luminescence Cell-Based Dose Retest to Confirm Inhibitors of Cancer Stem Cells. [Related pubchem assays (depositor defined):AID2717, AID2721]; type: functional; details: Homo sapiens
[9] = biological target: T1, Caspase-3 (Homo sapiens, UniProt P42574); type: functional;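 also: Dose-response selectivity test against caspase-3 for candidate inhibitors of sentrin-specific proteases (SENPs)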
T1 sequence (P42574 whole entry): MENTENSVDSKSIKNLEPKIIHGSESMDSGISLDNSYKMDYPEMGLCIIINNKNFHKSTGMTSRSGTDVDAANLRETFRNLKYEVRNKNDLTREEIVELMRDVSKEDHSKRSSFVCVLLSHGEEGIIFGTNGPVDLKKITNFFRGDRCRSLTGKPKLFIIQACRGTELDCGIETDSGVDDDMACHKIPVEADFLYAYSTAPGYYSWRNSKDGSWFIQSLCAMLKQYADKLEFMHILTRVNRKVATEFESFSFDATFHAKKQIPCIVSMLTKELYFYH

[10] = Vero E6 cell cytotoxicity, dose response, cytotoxicity control for non-replicating M. tuberculosis project, secondary assay (AID 492998); type: functional, VeroE6; details: Vero C1008
[11] = biological target: T2, Sentrin-specific protease 7 (Homo sapiens, UniProt Q9BQF6); type: functional;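 also: Luminescence-based dose-response confirmation of ultra-high-throughput screening hits, measuring inhibition of SENP7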
T2 sequence (Q9BQF6 whole entry): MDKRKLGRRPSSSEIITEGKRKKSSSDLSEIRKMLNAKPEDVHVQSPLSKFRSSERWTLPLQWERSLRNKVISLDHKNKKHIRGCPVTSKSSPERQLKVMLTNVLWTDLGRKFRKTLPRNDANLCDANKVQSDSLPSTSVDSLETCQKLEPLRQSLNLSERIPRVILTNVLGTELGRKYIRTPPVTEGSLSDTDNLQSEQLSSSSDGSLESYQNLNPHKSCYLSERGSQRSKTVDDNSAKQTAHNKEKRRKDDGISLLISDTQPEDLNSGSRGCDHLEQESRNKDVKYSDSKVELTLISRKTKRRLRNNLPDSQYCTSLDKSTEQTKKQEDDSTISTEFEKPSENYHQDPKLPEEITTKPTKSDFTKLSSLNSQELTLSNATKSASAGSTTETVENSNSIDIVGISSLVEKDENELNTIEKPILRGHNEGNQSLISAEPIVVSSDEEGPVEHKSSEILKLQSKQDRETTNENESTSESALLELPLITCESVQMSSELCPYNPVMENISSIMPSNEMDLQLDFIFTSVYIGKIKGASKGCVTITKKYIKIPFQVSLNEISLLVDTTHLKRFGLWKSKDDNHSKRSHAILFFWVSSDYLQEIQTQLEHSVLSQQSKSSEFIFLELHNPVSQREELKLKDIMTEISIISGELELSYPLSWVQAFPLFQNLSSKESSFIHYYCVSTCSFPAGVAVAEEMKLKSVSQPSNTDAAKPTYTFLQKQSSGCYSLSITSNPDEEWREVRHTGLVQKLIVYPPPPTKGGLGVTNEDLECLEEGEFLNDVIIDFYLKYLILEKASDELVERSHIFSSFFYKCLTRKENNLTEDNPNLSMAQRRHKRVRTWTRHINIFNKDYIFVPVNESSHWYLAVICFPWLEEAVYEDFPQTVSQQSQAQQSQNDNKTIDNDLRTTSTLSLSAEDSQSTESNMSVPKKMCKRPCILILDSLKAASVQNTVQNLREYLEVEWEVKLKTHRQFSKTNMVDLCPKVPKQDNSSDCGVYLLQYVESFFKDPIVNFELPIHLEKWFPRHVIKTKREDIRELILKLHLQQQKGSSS

[12] = biological target: T3, Sentrin-specific protease 6 (Homo sapiens, UniProt Q9GZR1); type: functional;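 also: Luminescence-based dose-response confirmatory assay of SENP6 inhibition, following up an ultra-high-throughput screen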
T3 sequence (Q9GZR1 whole entry): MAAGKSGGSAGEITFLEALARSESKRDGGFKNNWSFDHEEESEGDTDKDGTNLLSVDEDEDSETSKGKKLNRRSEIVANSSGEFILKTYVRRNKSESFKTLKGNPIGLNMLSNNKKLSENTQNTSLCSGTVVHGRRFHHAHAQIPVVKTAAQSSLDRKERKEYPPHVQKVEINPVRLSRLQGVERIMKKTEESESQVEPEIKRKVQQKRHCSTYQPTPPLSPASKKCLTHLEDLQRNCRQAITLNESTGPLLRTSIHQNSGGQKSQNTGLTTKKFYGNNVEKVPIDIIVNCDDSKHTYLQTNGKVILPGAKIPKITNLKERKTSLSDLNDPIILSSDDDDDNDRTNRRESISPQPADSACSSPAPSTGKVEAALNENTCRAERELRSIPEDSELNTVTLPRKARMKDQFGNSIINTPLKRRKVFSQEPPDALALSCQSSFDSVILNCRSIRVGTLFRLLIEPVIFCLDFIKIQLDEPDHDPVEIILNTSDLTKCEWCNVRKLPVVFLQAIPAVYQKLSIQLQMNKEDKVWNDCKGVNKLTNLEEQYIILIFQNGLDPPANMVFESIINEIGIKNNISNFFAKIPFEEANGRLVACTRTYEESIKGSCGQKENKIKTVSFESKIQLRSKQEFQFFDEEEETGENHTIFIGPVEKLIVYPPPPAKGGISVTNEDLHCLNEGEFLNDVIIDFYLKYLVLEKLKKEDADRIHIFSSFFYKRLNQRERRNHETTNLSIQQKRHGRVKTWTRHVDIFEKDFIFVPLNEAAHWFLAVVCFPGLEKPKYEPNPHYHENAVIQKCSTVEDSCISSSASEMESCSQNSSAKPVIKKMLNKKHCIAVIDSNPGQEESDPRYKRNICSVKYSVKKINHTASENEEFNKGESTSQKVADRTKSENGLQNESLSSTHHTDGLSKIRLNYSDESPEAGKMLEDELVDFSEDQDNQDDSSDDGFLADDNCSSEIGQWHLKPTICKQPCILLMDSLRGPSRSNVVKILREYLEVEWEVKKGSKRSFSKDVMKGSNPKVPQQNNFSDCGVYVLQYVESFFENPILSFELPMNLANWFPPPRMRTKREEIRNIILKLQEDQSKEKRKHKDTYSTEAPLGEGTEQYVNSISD

[13] = biological target: T4, Sentrin-specific protease 8 (Homo sapiens, UniProt Q96LD8); type: functional;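 also: luminescence read-out of SENP8 inhibition, dose-response confirmation following an ultra-high-throughput screen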
T4 sequence (Q96LD8 whole entry): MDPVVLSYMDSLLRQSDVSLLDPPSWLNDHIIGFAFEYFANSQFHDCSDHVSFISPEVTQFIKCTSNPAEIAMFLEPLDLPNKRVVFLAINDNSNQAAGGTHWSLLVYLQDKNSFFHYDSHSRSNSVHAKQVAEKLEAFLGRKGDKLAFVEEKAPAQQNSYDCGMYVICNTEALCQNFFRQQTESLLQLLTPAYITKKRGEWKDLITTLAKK

[14] = cells; type: functional
[15] = tested on: INS1; test: beta cell apoptosis inhibitors, cytokine rescue, dose response, luminescence, retest (AID 449756); type: functional, cell-based; details: Rattus norvegicus;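 also: cell death triggered by IL-1 beta plus TNF-alpha plus IFN-gamma mixture; protective hits raise ATP signal compared with cytokine alone wells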
[16] = tested on: Streptococcus sp. 'group A'; test: growth inhibition of control SK(-) GAS strain, dose response, counter-screen for streptokinase expression inhibitor project, luminescence, kanamycin, BacTiterGlo, confirmation (AID 1900); type: functional, organism-based
[17] = tested on: Streptococcus; test: Group A Streptococcus viability loss, dose response, counter-screen for streptokinase expression inhibitor project, luminescence, BacTiterGlo (AID 1915); type: functional, organism-based;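 also: potency for reduction of bacterial viability or growth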
[18] = microbe, parasite or virus in culture; type: functional; details: Mycobacterium tuberculosis

SMILES: COc1ccccc1C1CCCN1Cc1nc(-c2ccc(C)s2)oc1C (configuration not stated)
- CC50 [1]: 20.2 µM (active)
- IC50 [2]: 10.9 µM (active)
- IC50 [3]: 33.3 µM (active)

SMILES: O=S(=O)(Nc1ccc(F)cc1Cl)c1ccc(-c2cnc(C3CC3)o2)cc1
- IC50 [4]: > 80 µM (inactive)

SMILES: Cc1cccc(NC(S)=NCC23C=CC(O2)C2C(=O)N(c4ccc(Cl)cc4)C(=O)C23)c1 (configuration not stated)
- AC50 [5]: 15 µM (active)

SMILES: O=C(CCN1C(=O)/C(=C/c2ccc(F)cc2)SC1=S)NCCc1ccc(O)cc1
- IC50 [2]: > 25 µM (active)
- CC50 [6]: 24.1 µM (active)

SMILES: O=C(Nc1ccn(Cc2ccccc2F)n1)c1ccc(COc2ccc(Br)cc2)cc1
- IC50 [4]: > 80 µM (inactive)

SMILES: O=C1C=C(Nc2ccc(F)cc2)c2ccccc2C1=O
- CC50 [7]: 19 µM (active)
- AC50 [8]: 3.19 µM (active)
- IC50 [9]: 13.9 µM (active)
- CC50 [10]: 9.15 µM (active)
- IC50 [11]: 9.46 µM (active)
- IC50 [12]: 2.94 µM (active)
- IC50 [13]: 4.81 µM (active)
- IC50 [14]: 4.25 µM (active)
- AC50 [15]: 3.06 µM (active)

SMILES: OC(Cn1cncn1)(c1ccc(F)cc1)c1ccc(Cl)cc1 (configuration not stated)
- AC50 [5]: < 0.195 µM (active)

SMILES: CC(C)c1ccc(OCC(=O)NNC(=S)NC(=O)c2ccco2)c(Br)c1
- EC50 [16]: < 0.06 µM (active)
- EC50 [17]: 0.141 µM (active)
- IC50 [2]: > 25 µM (active)
- CC50 [6]: > 25 µM (active)

SMILES: Cc1cc(/C=C/c2ccc3cc(N(C)C)ccc3[n+]2C)c(C)n1-c1ccccc1
- CC50 [18]: 2.28 µM (active)
- AC50 [5]: 5.91 µM (active)

SMILES: CCCc1c(NC(=O)Nc2ccc(Cl)cc2Cl)cnn1-c1ccccc1
- IC50 [2]: 17.9 µM (active)
- CC50 [6]: > 25 µM (active)

SMILES: CCCCCCCCCC(=O)N[C@@H]1c2cc(OC)c(OC)cc2C[C@H]1OCc1ccccc1
- IC50 [2]: > 25 µM (active)
